A short description of one series: Kinetic solubility. Format: physicochemical. The settings on record: 90 min, pH 7.4. How it is done: The kinetic solubility was measured by diluting a small amount of 10 mM DMSO stock into PBS pH7.4 in a filtration plate at a target concentration of 200 μM giving a final solution composition of 98:2 PBS:DMSO. Each compound was run in triplicate on the same plate with two standard compounds, verapamil and ketoconazole, included per plate. The filtration plate was shaken at 500 rpm for 90 minutes and then filtered under vacuum. The filtrate was sampled and diluted with a DMSO:PBS mixture in a flat bottomed UV plate to give a solution with a composition of PBS:DMSO 80:20. A dilution series for each compound was then created in flat bottomed UV plates in PBS:DMSO 80:20 with concentrations 200 μM, 100 μM, 50 μM, 25 μM, 12.5 μM & […]. The UV absorbance for these solutions was read across 230-400 nm at 1 nm intervals using a TECAN Safire II plate reader and a suitable UV wavelength chosen around the UV maximum of each compound.

A further series addresses T1, PKG1β(h) (Homo sapiens, UniProt Q13976).
T1 construct: purchased Millipore (Kinase Profiler service, tested externally)
T1 sequence (Q13976 1-686 isoform Q13976-2): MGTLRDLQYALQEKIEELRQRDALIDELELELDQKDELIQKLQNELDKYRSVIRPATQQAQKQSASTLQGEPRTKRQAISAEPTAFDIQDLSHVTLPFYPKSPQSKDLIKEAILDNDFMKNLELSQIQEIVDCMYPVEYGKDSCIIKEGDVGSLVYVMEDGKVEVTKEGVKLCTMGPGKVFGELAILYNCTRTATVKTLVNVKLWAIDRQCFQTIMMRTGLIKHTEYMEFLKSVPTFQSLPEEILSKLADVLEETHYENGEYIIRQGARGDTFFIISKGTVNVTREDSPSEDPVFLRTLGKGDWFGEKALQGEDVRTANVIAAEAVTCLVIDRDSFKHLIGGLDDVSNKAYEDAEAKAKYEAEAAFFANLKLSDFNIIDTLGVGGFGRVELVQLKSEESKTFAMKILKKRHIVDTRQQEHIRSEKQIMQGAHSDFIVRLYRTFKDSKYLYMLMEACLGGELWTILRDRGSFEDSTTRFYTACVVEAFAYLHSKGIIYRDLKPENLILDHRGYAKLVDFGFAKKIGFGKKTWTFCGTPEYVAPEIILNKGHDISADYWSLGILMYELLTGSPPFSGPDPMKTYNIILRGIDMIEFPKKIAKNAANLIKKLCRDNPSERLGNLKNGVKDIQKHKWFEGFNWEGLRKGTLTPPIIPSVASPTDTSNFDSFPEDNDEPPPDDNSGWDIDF
The series can be described thus: Millipore Kinase Profiler assay, PKG1β(h). In kind it is biochemical.

Another series addresses T2, PKG1α(h) (Homo sapiens, UniProt Q13976).
T2 construct: purchased Millipore (Kinase Profiler service, tested externally)
T2 sequence (Q13976 1-671): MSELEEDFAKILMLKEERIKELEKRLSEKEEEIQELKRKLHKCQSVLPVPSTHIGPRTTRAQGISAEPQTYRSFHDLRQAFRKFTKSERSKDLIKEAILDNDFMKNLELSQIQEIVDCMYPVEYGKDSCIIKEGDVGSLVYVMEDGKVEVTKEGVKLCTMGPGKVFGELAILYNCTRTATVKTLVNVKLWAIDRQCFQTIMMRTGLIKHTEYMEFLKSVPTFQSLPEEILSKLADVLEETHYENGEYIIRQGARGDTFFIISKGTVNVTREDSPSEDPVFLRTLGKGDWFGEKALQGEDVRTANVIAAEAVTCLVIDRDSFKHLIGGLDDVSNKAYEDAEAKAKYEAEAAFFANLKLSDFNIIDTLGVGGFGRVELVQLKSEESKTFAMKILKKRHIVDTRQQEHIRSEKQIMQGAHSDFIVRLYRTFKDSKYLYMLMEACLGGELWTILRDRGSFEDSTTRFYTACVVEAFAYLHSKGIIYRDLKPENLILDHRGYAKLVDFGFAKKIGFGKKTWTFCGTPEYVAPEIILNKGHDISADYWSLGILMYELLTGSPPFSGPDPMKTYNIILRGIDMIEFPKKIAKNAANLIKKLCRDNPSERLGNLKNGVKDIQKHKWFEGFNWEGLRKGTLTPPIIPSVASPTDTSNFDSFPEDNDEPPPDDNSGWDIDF
The series can be described thus: Millipore Kinase Profiler assay, PKG1α(h). In kind it is biochemical.

A short description of series [1]: Measured logD (shake flask). The settings on record: octanol/PBS. In kind it is physicochemical.
For another series, the system named is Plasmodium falciparum. The series can be described thus: blood stage hypoxanthine incorporation (HXI) cell assay. Format: cell-based. The settings on record: blood stage hypoxanthine incorporation cell assay, read-out: Pf HXI pEC50 (converted). The text has this:
[21] Full details on biochemical assay and anti-malarial hypoxanthine incorporation (cell based) assay procedures can be found in reference 16.

Series [2] concerns HepG2 human liver-derived cells. Put plainly: in vitro cytotoxicity assay in HepG2 cells. In kind it is cell-based.
Series [3] can be described thus: mouse liver microsomal turnover. In kind it is in vitro ADME. The settings on record: % remaining after 30 min incubation with mouse liver microsomes. How it is done:
Microsomal turnover data was obtained using mouse liver microsomes (MLM) obtained from BD Biosciences. The compounds are pre-incubated at 37 °C for 5 minutes with the microsomes and the reaction was initiated by adding an equal volume of NADPH generating solution, also obtained from BD Biosciences. The final compound concentration in the incubation is 1 μM, and the microsomal protein concentration is 0.2 mg/mL. A sample is taken at t=0 and quenched with 2x volume of ice-cold methanol containing an internal standard reference compound (carbamazepine). The reaction is agitated at 37 °C for 30 minutes, when a further sample was taken and quenched in an identical fashion. The samples were centrifuged at 10000 rpm for 10 minutes and the supernatant taken for analysis in triplicate by LC-MS/MS (Agilent Technologies G6410 series, triple quadrupole with MM-ESI ion source) using optimised multiple reaction monitoring (MRM) scans and a standard column gradient on an Acquity UPLC BEH C8 1.7μm column, running acetonitrile and water with 0.05% acetic acid as the mobile phase. The % turnover is obtained by calculating the percentage difference of the peak areas, normalised to the internal standard, at t=0 and t=30. Verapamil is used as the standard compound for this assay.

The test system of another series is human kinase panel. The series can be described thus: Kinase selectivity profiling against a human kinase panel. In kind it is biochemical. The conditions noted are these: single 1 µM concentration. The method, then: [29] Kinase selectivity profiling was carried out at the MRC Protein Phosphorylation Unit at the University of Dundee, U.K. at a single concentration of 1 µM for all three compounds.

The target of another series is PfPKG (Plasmodium falciparum, UniProt Q8I719). Put plainly: biochemical.
Sequence of PfPKG (Q8I719 whole entry): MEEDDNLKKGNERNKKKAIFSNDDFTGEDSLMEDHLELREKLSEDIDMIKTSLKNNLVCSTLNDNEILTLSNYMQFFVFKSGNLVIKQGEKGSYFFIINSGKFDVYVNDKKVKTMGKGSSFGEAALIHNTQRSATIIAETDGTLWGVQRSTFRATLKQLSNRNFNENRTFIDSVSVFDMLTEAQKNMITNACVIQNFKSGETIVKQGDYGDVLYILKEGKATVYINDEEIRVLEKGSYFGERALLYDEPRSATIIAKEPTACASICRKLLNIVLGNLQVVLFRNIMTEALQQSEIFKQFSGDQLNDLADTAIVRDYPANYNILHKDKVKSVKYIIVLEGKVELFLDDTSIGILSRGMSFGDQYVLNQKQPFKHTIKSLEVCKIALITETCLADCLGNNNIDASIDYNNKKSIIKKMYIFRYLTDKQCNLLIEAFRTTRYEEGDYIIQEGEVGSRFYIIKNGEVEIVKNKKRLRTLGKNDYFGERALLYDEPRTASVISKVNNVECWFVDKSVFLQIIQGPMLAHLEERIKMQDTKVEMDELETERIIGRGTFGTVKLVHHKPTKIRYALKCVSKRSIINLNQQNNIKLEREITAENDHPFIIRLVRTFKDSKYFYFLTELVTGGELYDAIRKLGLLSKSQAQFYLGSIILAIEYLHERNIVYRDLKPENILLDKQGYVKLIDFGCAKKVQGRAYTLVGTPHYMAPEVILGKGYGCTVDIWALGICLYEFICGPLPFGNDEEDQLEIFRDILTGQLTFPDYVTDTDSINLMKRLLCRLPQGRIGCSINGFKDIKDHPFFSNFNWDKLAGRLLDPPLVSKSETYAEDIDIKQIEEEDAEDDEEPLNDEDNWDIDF
Setting [4] is: up to a top assay concentration of 1 µM.

One may read the pIC50 as −log10 of the IC50, conventionally taken in molar units. Read a low pIC50 as a large IC50.

In turn, `CNc1nccc(-c2c(-c3ccc(F)cc3)nc3cc(NCCN(C)C)ccn23)n1` [Compound 27] came in with a Kin sol in “Kinetic solubility” of 207 µM. Besides, the pIC50 at PKG1β(h) (PKG1β(h)) and at PKG1α(h) (PKG1α(h)) was less than 6 in each case. For the same compound, the “activity against human orthologue of PKG” value on PKG1β(h) (setting [4]) and at PKG1α(h) (setting [4]) was “no activity” in each case. Moreover, in series [1], the mLogD turned out to be 2.2. Besides, the EC50 in the series on Plasmodium falciparum is 0.525 µM; in series [2] (Homo sapiens, HepG2, concentration at which half of cells remained viable at 48 h, read-out: HepG2 pEC50 (converted)), greater than 20 µM. Besides, the “in vitro cytotoxicity (in words)” value in series [2] is given as “non-cytotoxic”. In addition, the MLM % rem in series [3] is recorded as 93%. The “selectivity against human kinase panel (in words)” value with human kinase panel is “excellent selectivity profile”. The “LLE (pIC50 – mLogD)” value at PfPKG (PfPKG pIC50 minus measured logD) is reported as 6.4. In addition, the IC50 at PfPKG (biochemical assay, read-out: PfPKG pIC50 (converted)) is 0.00275 µM.

These data come from publication PMC6857626, “Potent bicyclic inhibitors of malarial cGMP-dependent protein kinase: approaches to combining improvements in cell potency, selectivity and structural novelty” (Bioorganic & Medicinal Chemistry Letters, 2019).
